Assay results published in patent US6203822A, “Gallium-containing compounds for the treatment of infections caused by intracellular pathogens and pathogens causing chronic pulmonary infection” (priority 1996, dated 2001).
Read-outs that look alike come from different tables or passages of the source.

Tests used:
[1] = tested on: M. tuberculosis in human alveolar macrophages; experiment: M. tuberculosis in human alveolar macrophages, gallium nitrate with or without anti-tuberculous antibiotics; type: cell-based; settings: full doses of first line antibiotics, by 24 h
Procedure: The gallium-containing compounds can also be tested for their ability to inhibit intracellular pathogens in tissue culture assays. In general, in these assays, the macrophages are placed in culture and incubated with the intracellular pathogen at an approximate cell to pathogen ratio of preferably at least 1:1 to about 1:5 cells:pathogen. Exemplary culture conditions are provided in the assays detailed in the Examples. For assays assessing M. tuberculosis infection, freshly adherent monocytes, 12 day-old adherent MDMs, or freshly adherent alveolar macrophages are incubated with M. tuberculosis, MAI or other intracellular bacteria at a ratio of about 1:1 to about 1:5 (phagocyte:bacterium). For M. tuberculosis or MAI, the bacteria are incubated with the phagocyte for 2 hr at 37° C. in RPMI/HEPES media with 2.5% serum or human serum albumin (serum-free). The cells are washed to remove non-adherent bacteria and monolayers are replated with RPMI containing 1% autologous serum (to maintain phagocyte viability but not to sustain extracellular growth of bacteria). Gallium-containing compounds, such as gallium nitrate, with, or without, other agents such as antibiotics, cytokines etc., are added about 24 hr. later and mycobacterial growth in cell lysates is then assessed over the next several days either by the radiometric BACTEC system or by colony-forming units on agarose plates. In each experiment, growth is assessed relative to control monolayers where no drug has been added.
Human alveolar macrophages were purified from healthy non-smoking adult volunteers and placed in monolayer culture. M. tuberculosis infected cells were treated with gallium nitrate as described in Example 2. Antituberculous antibiotics were added to wells alone or with gallium nitrate at 500 μM 24 h after M. tuberculosis infection. Antituberculous antibiotics tested included streptomycin (2.016 μg/ml), isoniazid (0.1 μg/ml), rifampin (2.0 μg/ml), and ethambutol (2.52 μg/ml) and the combination of antibiotics was denoted as SIRE. Antibiotics were obtained in lyophilized form from BACTEC. The antibiotics were reconstituted in sterile water per package instructions. With reference to FIG. 3, SIRE refers to combinations of streptomycin, isoniazid, rifampin and ethambutol while IR refers to combinations of Isoniazid and rifampin.
Infected macrophages were cultured for 24 h, 48 h, or 120 h. Growth index readings of combined supernatants and cell lysates were measured in the BACTEC 460 TB system. […] Since these antibiotics have a number of unpleasant side effects that are reduced at reduced concentrations of the drugs, combined therapies that permit these antibiotics to be administered at lower doses when combined with gallium nitrate is significant and may help to promote better drug compliance in patients infected with M. tuberculosis.

bone cell = settings: cancer patients, large scale clinical studies (Todd et al.); cited from earlier work
[2] = known from literature; cited from earlier work
[3] = tested on: macrophage monolayers (MDMs); experiment: Gallium toxicity in uninfected MDM monolayers; type: cell-based, human; settings: in most cases, equivalent to untreated controls
Procedure: To test the potential toxicity of gallium nitrate on the standard macrophage monolayers (MDMs) used in the assays described in this invention, uninfected MDM monolayers were incubated with various concentrations of gallium nitrate in the range used in the studies described in Examples 2 and 3.
There was no immediate difference in monolayer density between MDM monolayers with and without gallium nitrate treatment up to a gallium concentration of 2 mM. Results were based on counting napthol blue macrophage stained nuclei from the monolayer. These numbers directly correlate with the number of cells present. In most cases the integrity of the MDM monolayer in the presence of gallium was maintained for up to 37 days, equivalent to untreated, uninfected control cultures.

[4] = tested on: M. tuberculosis strain H37Ra; type: cell-based
[5] = tested on: M. tuberculosis in macrophages; type: cell-based
[6] = tested on: macrophage ferritin and transferrin receptors; settings: Byrd, et al.; cited from earlier work

## CC[C@@H](CO)NCCN[C@@H](CC)CO [ethambutol]
[1]
  growth inhibition by full doses of first line antibiotics: quite potent

## [Ga] [gallium]
Bone cell
  effect on bone cell morphology or viability: did not affect bone cell morphology or viability
[2]
  tissue accumulation: accumulate in cells of mononuclear origin in the liver, kidney, spleen and lymphatic system
[3]
  time integrity of MDM monolayer maintained in presence of gallium: up to 37 days

## NNC(=O)c1ccncc1 [isoniazid]
[1]
  growth inhibition by full doses of first line antibiotics: quite potent

## CO[C@H]1/C=C/O[C@@]2(C)Oc3c(C)c(O)c4c(O)c(c(/C=N/N5CCN(C)CC5)c(O)c4c3C2=O)NC(=O)/C(C)=C\C=C\[C@H](C)[C@H](O)[C@@H](C)[C@@H](O)[C@@H](C)[C@H](OC(C)=O)[C@@H]1C [rifampin]
[1]
  growth inhibition by full doses of first line antibiotics: quite potent

## [H]/N=C(/N)N[C@H]1[C@H](O)[C@@H](O)[C@H](O[C@@H]2O[C@@H](C)[C@](O)(C=O)[C@H]2O[C@@H]2O[C@@H](CO)[C@H](O)[C@@H](O)[C@@H]2NC)[C@@H](N/C(N)=N\[H])[C@@H]1O [streptomycin]
[1]
  growth inhibition by full doses of first line antibiotics: quite potent

## gallium transferrin: Human apotransferrin mixed 1:1 (by molar ratio) with gallium
[4]; growth index Day 10, broth culture, apotransferrin mixed 1:1 with gallium
  concentration of gallium with marked inhibition of growth: 75 µM

## interferon-γ: Human interferon-γ (Genzyme, Cambridge, Mass.), cytokine
[5]; IFN-γ in combination with 0 to about 400 μM gallium nitrate
  augmentation of gallium nitrate growth inhibition: at least 50%
[5]; interferon-γ various concentrations (0-1000U), gallium nitrate at 100 μM
  augmentation of gallium nitrate growth inhibition: ≥ 50%
[6]
  effect on expression of transferrin receptors: down regulate expression of transferrin receptors
  effect on macrophage ferritin levels: down regulate macrophage ferritin levels

## transferrin: control cultures were treated with transferrin alone; Human apotransferrin (Sigma Chemicals)
[4]; transferrin alone
  bacterial growth inhibition, control culture: no inhibition in bacterial growth
